# Target: T1, Induced myeloid leukemia cell differentiation protein Mcl-1 (Homo sapiens, UniProt Q07820)
# Experiment: Inhibition of […]-labelled BID binding to human MCl-1 (171 to 327 residues) expressed in Escherichia coli BL21 (DE3) by fluorescence polarization assay
# Conditions: not given
# T1 sequence (Q07820 whole entry, the tested form may be a part): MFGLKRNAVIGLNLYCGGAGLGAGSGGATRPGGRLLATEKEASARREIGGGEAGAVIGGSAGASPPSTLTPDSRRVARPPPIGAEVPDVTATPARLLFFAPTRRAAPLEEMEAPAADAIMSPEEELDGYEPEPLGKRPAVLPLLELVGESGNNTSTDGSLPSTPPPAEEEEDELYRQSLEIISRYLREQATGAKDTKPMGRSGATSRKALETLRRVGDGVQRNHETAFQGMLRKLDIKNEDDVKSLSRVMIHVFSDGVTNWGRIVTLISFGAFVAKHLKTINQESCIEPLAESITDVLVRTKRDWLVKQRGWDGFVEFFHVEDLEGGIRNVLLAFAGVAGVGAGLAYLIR
row,SMILES,IC50 [nM]
1,O=C(Nn1cnnc1)c1cccc(S(=O)(=O)Nc2cc(C(F)(F)F)ccc2Cl)c1,19000
2,Cc1cc(C(=O)NC2CCc3ccccc3C2)sc1S(=O)(=O)Nc1cc(C(F)(F)F)ccc1Cl (stereo unspecified),4200
3,O=S(=O)(Nc1ccc(Cl)cc1Cl)c1cc(Cl)ccc1Cl,21000
4,Cc1ccc(F)cc1S(=O)(=O)Nc1cc(C(F)(F)F)ccc1Cl,5500
5,CC(C)c1cccc(NS(=O)(=O)c2cc(Cl)ccc2Cl)c1,> 25000
6,Cc1cc(C(=O)N[C@H](Cc2ccc(-c3ccccc3)cc2)C(=O)O)sc1S(=O)(=O)Nc1cc(C(F)(F)F)ccc1Cl,2800
7,O=S(=O)(Nc1cc(Cl)ccc1Cl)c1cc(Cl)ccc1Cl,11000
8,Cc1cc(C(=O)NC(Cc2ccccc2)Cc2ccccc2)sc1S(=O)(=O)Nc1cc(C(F)(F)F)ccc1Cl,7100
9,Cc1ccccc1S(=O)(=O)Nc1cc(C(F)(F)F)ccc1Cl,11000
10,O=S(=O)(Nc1ccccc1Cl)c1cc(Cl)ccc1Cl,> 25000
11,Cc1nn(C)c(Cl)c1S(=O)(=O)Nc1cc(C(F)(F)F)ccc1Cl,23000
12,Cc1cc(C(=O)NC(Cc2ccccc2)c2ccccc2)sc1S(=O)(=O)Nc1cc(C(F)(F)F)ccc1Cl (stereo unspecified),7100
13,O=S(=O)(Nc1cc(Cl)c(Cl)cc1Cl)c1cc(Cl)ccc1Cl,9000
14,O=S(=O)(Nc1cc(C(F)(F)F)ccc1Cl)c1sc(Cl)cc1Cl,8600
15,Cc1cc(C(=O)NC2(C(=O)O)CC2)sc1S(=O)(=O)Nc1cc(C(F)(F)F)ccc1Cl,1500
16,Cc1cc2c(cc1S(=O)(=O)Nc1cc(C(F)(F)F)ccc1Cl)OCC(=O)N2,1800
17,O=S(=O)(Nc1cc(C(F)(F)F)ccc1Cl)c1cc(Cl)ccc1Cl,149 to 3100
18,O=S(=O)(Nc1cc(C(F)(F)F)ccc1Cl)c1c(Cl)cccc1Cl,7300
19,Cc1cc(F)ccc1S(=O)(=O)Nc1cc(C(F)(F)F)ccc1Cl,10000
20,Cc1ccc(S(=O)(=O)Nc2cc(C(F)(F)F)ccc2Cl)c(C)c1,12000
21,O=S(=O)(Nc1cccc(C(F)(F)F)c1)c1cc(Cl)ccc1Cl,> 25000
22,O=S(=O)(Nc1ccn[nH]1)c1cc(Cl)ccc1Cl,> 25000
23,Cc1ccc([N+](=O)[O-])cc1NS(=O)(=O)c1cc(Cl)ccc1Cl,20000
24,O=S(=O)(Nc1cc(C(F)(F)F)ccc1Cl)c1ccccc1Cl,13000
25,CN(C)c1ccc(S(=O)(=O)N(C)C)cc1NS(=O)(=O)c1cc(Cl)ccc1Cl,18000
26,COC(=O)c1cc(C)c(S(=O)(=O)Nc2cc(C(F)(F)F)ccc2Cl)s1,1900
27,Cc1cc(C(=O)NCCc2ccc(Oc3ccccc3)cc2)sc1S(=O)(=O)Nc1cc(C(F)(F)F)ccc1Cl,7000
28,Cc1cc(C(=O)NCCC(=O)O)sc1S(=O)(=O)Nc1cc(C(F)(F)F)ccc1Cl,3500
29,Cn1ccnc1S(=O)(=O)Nc1cc(C(F)(F)F)ccc1Cl,17000
30,O=S(=O)(Nc1ccc2ccccc2c1)c1cc(Cl)ccc1Cl,> 25000

# Further compounds by falling IC50, results first:
row,IC50 [nM],SMILES
1,1500,Cc1cc(C(=O)N[C@H](C)C(=O)O)sc1S(=O)(=O)Nc1cc(C(F)(F)F)ccc1Cl
2,1070,Cc1cc(C(=O)NS(C)(=O)=O)sc1S(=O)(=O)Nc1cc(C(F)(F)F)ccc1Cl
3,1000,Cc1cc(C(=O)N2CCCC[C@H]2C(=O)O)sc1S(=O)(=O)Nc1cc(C(F)(F)F)ccc1Cl
4,920,Cc1cc(C(=O)N[C@H](Cc2c[nH]cn2)C(=O)O)sc1S(=O)(=O)Nc1cc(C(F)(F)F)ccc1Cl
5,820,Cc1cc(C(=O)N[C@H](CCc2ccccc2)C(=O)O)sc1S(=O)(=O)Nc1cc(C(F)(F)F)ccc1Cl
6,810,Cc1cc(C(=O)NCCc2ccccc2)sc1S(=O)(=O)Nc1cc(C(F)(F)F)ccc1Cl
7,750,Cc1cc(C(=O)N[C@@H](Cc2ccccc2)C(=O)O)sc1S(=O)(=O)Nc1cc(C(F)(F)F)ccc1Cl
8,690,Cc1cc(C(=O)N(CCc2ccccc2)CC(=O)O)sc1S(=O)(=O)Nc1cc(C(F)(F)F)ccc1Cl
9,660,Cc1cc(C(=O)N[C@@H](C(=O)O)C(C)C)sc1S(=O)(=O)Nc1cc(C(F)(F)F)ccc1Cl
10,630,Cc1cc(C(=O)N2CCN(C(=O)OC(C)(C)C)C[C@H]2C(=O)O)sc1S(=O)(=O)Nc1cc(C(F)(F)F)ccc1Cl
11,470,Cc1cc(C(=O)NC[C@H](O)c2ccccc2)sc1S(=O)(=O)Nc1cc(C(F)(F)F)ccc1Cl
12,470,Cc1cc(C(=O)NCC(=O)O)sc1S(=O)(=O)Nc1cc(C(F)(F)F)ccc1Cl
13,420,Cc1cc(C(=O)NCc2nnn[nH]2)sc1S(=O)(=O)Nc1cc(C(F)(F)F)ccc1Cl
14,380,Cc1cc(C(=O)N[C@H](Cc2cccnc2)C(=O)O)sc1S(=O)(=O)Nc1cc(C(F)(F)F)ccc1Cl
15,310,Cc1cc(C(=O)N[C@H](COCc2ccccc2)C(=O)O)sc1S(=O)(=O)Nc1cc(C(F)(F)F)ccc1Cl
16,300,Cc1cc(C(=O)NC(Cc2ccccc2)C(=O)O)sc1S(=O)(=O)Nc1cc(C(F)(F)F)ccc1Cl (stereo unspecified)
17,210,Cc1cc(C(=O)N[C@H](Cc2c[nH]c3ccccc23)C(=O)O)sc1S(=O)(=O)Nc1cc(C(F)(F)F)ccc1Cl
18,181,Cc1cc(C(=O)N[C@H](Cc2ccccc2)C(=O)O)sc1S(=O)(=O)Nc1cc(C(F)(F)F)ccc1Cl
19,153,Cc1cc(C(=O)N[C@H](Cc2ccccc2)C(N)=O)sc1S(=O)(=O)Nc1cc(C(F)(F)F)ccc1Cl
20,153,Cc1cc(C(=O)N[C@H](Cc2ccccc2)c2nnn[nH]2)sc1S(=O)(=O)Nc1cc(C(F)(F)F)ccc1Cl
21,149,Cc1cc(C(=O)NC[C@@H](O)c2ccccc2)sc1S(=O)(=O)Nc1cc(C(F)(F)F)ccc1Cl
22,145,COC(=O)[C@@H](Cc1ccccc1)NC(=O)c1cc(C)c(S(=O)(=O)Nc2cc(C(F)(F)F)ccc2Cl)s1
23,112,Cc1cc(C(=O)N[C@H](Cc2ccccc2)C(=O)NCCO)sc1S(=O)(=O)Nc1cc(C(F)(F)F)ccc1Cl
24,73,Cc1cc(C(=O)N[C@H](Cc2ccccc2)C(=O)NS(C)(=O)=O)sc1S(=O)(=O)Nc1cc(C(F)(F)F)ccc1Cl
25,53,Cc1cc(C(=O)N[C@H](Cc2ccccc2)C(=O)NS(=O)(=O)c2ccccc2)sc1S(=O)(=O)Nc1cc(C(F)(F)F)ccc1Cl

# System: not listed separately
# Experiment: Solubility of the compound
# Type: physicochemical
# Conditions: not given
row,solubility [µM],SMILES
1,100,Cc1cc(C(=O)N[C@H](Cc2ccccc2)C(=O)O)sc1S(=O)(=O)Nc1cc(C(F)(F)F)ccc1Cl
2,100,Cc1cc(C(=O)N[C@H](Cc2c[nH]c3ccccc23)C(=O)O)sc1S(=O)(=O)Nc1cc(C(F)(F)F)ccc1Cl

# Target: T1, Induced myeloid leukemia cell differentiation protein Mcl-1
# Experiment: Binding affinity to biotin-labelled TEV-fused GST-tagged MCl-1 (unknown origin) by surface plasmon resonance analysis
# Conditions: not given
row,Kd [nM],SMILES
1,165,Cc1cc(C(=O)NC[C@@H](O)c2ccccc2)sc1S(=O)(=O)Nc1cc(C(F)(F)F)ccc1Cl

# System: not listed separately
# Experiment: Stability in mouse liver microsomes assessed as parent compound remaining after 30 mins
# Type: ADME, Microsome
# Conditions: read-out: Stability
row,remaining at 0.5 h [%],SMILES
1,81,Cc1cc(C(=O)N[C@H](Cc2ccccc2)C(=O)NS(=O)(=O)c2ccccc2)sc1S(=O)(=O)Nc1cc(C(F)(F)F)ccc1Cl
2,95,Cc1cc(C(=O)N[C@H](Cc2ccccc2)C(=O)O)sc1S(=O)(=O)Nc1cc(C(F)(F)F)ccc1Cl
3,91,Cc1cc(C(=O)N[C@H](Cc2ccccc2)C(=O)NS(C)(=O)=O)sc1S(=O)(=O)Nc1cc(C(F)(F)F)ccc1Cl
4,94,Cc1cc(C(=O)N[C@H](Cc2c[nH]c3ccccc23)C(=O)O)sc1S(=O)(=O)Nc1cc(C(F)(F)F)ccc1Cl

# System: not listed separately
# Experiment: Stability in human liver microsomes assessed as parent compound remaining after 30 mins
# Type: ADME, Microsome
# Conditions: read-out: Stability
row,remaining at 0.5 h [%],SMILES
1,74,Cc1cc(C(=O)N[C@H](Cc2ccccc2)C(=O)NS(=O)(=O)c2ccccc2)sc1S(=O)(=O)Nc1cc(C(F)(F)F)ccc1Cl
2,66,Cc1cc(C(=O)N[C@H](Cc2ccccc2)C(=O)O)sc1S(=O)(=O)Nc1cc(C(F)(F)F)ccc1Cl
3,99,Cc1cc(C(=O)N[C@H](Cc2ccccc2)C(=O)NS(C)(=O)=O)sc1S(=O)(=O)Nc1cc(C(F)(F)F)ccc1Cl
4,98,Cc1cc(C(=O)N[C@H](Cc2c[nH]c3ccccc23)C(=O)O)sc1S(=O)(=O)Nc1cc(C(F)(F)F)ccc1Cl

# — ChEMBL document CHEMBL4387763, “Discovery of novel biaryl sulfonamide based Mcl-1 inhibitors” (Bioorg Med Chem Lett, 2019)
